According to paper PMC9033141, “Beta and Gamma Amino Acid-Substituted Benzenesulfonamides as Inhibitors of Human Carbonic Anhydrases” (Pharmaceuticals, 2022):
Where two headings read alike, the source gives them in different places.

Tests used:
CAVB = molecular target: T1, CAVB (Homo sapiens, UniProt Q9Y2D0); assay: Fluorescent thermal shift assay (FTSA), CAVB; type: binding; details: for Intrinsic Gibbs energy change (ΔGint), CAVB: 37 °C, calculated (Equation 5); for Kd: FTSA, pH 7.0, 37 °C, read-out: Observed Dissociation Constant (Kd_obs), CAVB
T1 construct: made in house; host or cells: E. coli
Method: (§1) Human CA isozymes were expressed in E. coli (CAI, II, III, IV, VA, VB, VII, XII, XIII, XIV) or mammalian cells (CAVI and CAIX), chromatographically purified following the published protocols [47], and stored at −80 °C. The protein concentration was determined by UV absorption at 280 nm using Beer–Lambert law.
(§2) The QIAGEN Rotor-Gene Q was used to carry out the experiments, with a blue channel used for excitation (365 nm) and detection (460 nm). FTSA in this case relies on an extrinsic probe, 8-anilino-1-naphthalenesulfonate (ANS), to detect the fluorescence increase during protein denaturation, from which protein melting temperature (Tm) can be determined. […] The observed affinity of ligands for CAs was determined by plotting the Tm as a function of ligand concentration and then fitting a curve as described previously [48]. […] Samples were heated from 25 °C to 99 °C at the speed of 1 °C/min.
(§3) The intrinsic thermodynamic parameters were calculated as described in [40]. The intrinsic reaction of inhibitor binding to CA is shown in Equation (1). […] It is known that CA proteins bind sulfonamides only when water molecules are coordinated to the Zn(II) ion, and sulfonamides only bind to CA proteins when their amino group is deprotonated (confirmed by neutron crystallography [53, 54, 55]):(1) CA Zn^II−H2O+RSO2NH^−⇄ CA Zn^II−NH SO2R+H2O
(§4) When calculating Kd_int values, these protein and ligand fractions from Equation (1) have to be accounted for (Equations (2) and (3)). The intrinsic dissociation constant is calculated by multiplying Kd_obs value by the corresponding fractions of protein and ligand (Equation (4)). (2) fRSO2NH^−=10^pH−pKa_RSO2NH2/1+10^pH−pKa_RSO2NH2 (3) fCAZnH2O=1−10^pH−pKa_CAZnH2O/1+10^pH−pKa_CAZnH2O (4) Kd_int=Kd_obs×fRSO2NH^−×fCAZnH2O (5) ΔGint0=RTlnKd_int
(§5) The intrinsic standard Gibbs energy changes upon binding were calculated using Equation (5). Here, R—universal ideal gas constant (8.3144 J/mol·K), T—absolute temperature (310.15 K).

CAXIII [1] = molecular target: T2, CAXIII (Homo sapiens, UniProt Q8N1Q1); details: 37 °C; calculated (Equation 5);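 for Intrinsic Gibbs energy change (ΔGint), CAXIII: recombinant human CAXIII melting temperature tracked by ANS fluorescence in thermal shift assay, Tm fitted against ligand concentration, intrinsic value corrects Kd for deprotonated sulfonamide and Zn-bound water fractions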
CAXII [2] = molecular target: T3, CAXII (Homo sapiens, UniProt O43570); assay: biochemical; type: binding; details: for Intrinsic Gibbs energy change (ΔGint), CAXII: 37 °C, calculated (Equation 5); for Kd: FTSA, pH 7.0, 37 °C, read-out: Observed Dissociation Constant (Kd_obs), CAXII
T3 construct: made in house; host or cells: E. coli

CAII [3] = molecular target: T4, CAII (Homo sapiens, UniProt P00918); assay: Isothermal titration calorimetry (ITC), CAII; type: binding; details: pH 7.0, 37 °C, read-out: Observed Dissociation Constant (Kd_obs), CAII, ITC data in brackets
T4 construct: made in house; host or cells: E. coli

CAIX [4] = molecular target: T5, CAIX (Homo sapiens, UniProt Q16790); assay: biochemical; type: binding; details: for Intrinsic Gibbs energy change (ΔGint), CAIX: 37 °C, calculated (Equation 5); for Kd: FTSA, pH 7.0, 37 °C, read-out: Observed Dissociation Constant (Kd_obs), CAIX
T5 construct: made in house
Method: as §1, §2
(§6) The intrinsic thermodynamic parameters were calculated as described in [40]. The intrinsic reaction of inhibitor binding to CA is shown in Equation (1).
as §4, §5

CAVA = molecular target: T6, CAVA (Homo sapiens, UniProt P35218); assay: Fluorescent thermal shift assay (FTSA), CAVA; type: binding; details: for Kd: FTSA
T6 construct: made in house; host or cells: E. coli
Method: as §1, §2, §3, §4, §5

CAII [5] = molecular target: T4, CAII; assay: biochemical; type: binding; details: for Intrinsic Gibbs energy change (ΔGint), CAII: 37 °C, calculated (Equation 5); for Kd: FTSA, pH 7.0, 37 °C, read-out: Observed Dissociation Constant (Kd_obs), CAII
[6] = Determination of compound sulfonamide group pKa (UV-Vis spectra at different pH); type: physicochemical; details: universal buffer; spectrophotometric, 37 °C; read-out: Sulfonamide pKa
Method: To calculate the intrinsic thermodynamic parameters of compound binding to CA isozymes, the pKa values of the sulfonamide group and the water molecule bound to the Zn(II) ion at the active site of CA proteins had to be determined. The pKa values for CA isozyme-bound water molecules were taken from, CAI—8.1; CAII—6.9; CAIII—6.5; CAIV—6.6; CAVA—6.7; CAVB—7.0; CAVI—6.0; CAVII—6.8; CAIX—6.6; CAXII—6.8; CAXIII—8.0; CAXIV—6.1. […] The pKa values were calculated as described previously in [28, 52] by normalizing the absorbance, plotting it as a function of pH, then fitting to the Henderson–Hasselbalch equation using the least square method (Figure S105).
Since the pKa values were only able to be measured for compound group 26–36, due to universal buffer pH limitations, intrinsic thermodynamic parameters were not calculated for compounds 2(a,b)–25(a,b), only for compounds 26–36 using experimentally obtained pKa values when possible and using the average pKa value mentioned above for compounds not measured.

CAVII = molecular target: T7, CAVII (Homo sapiens, UniProt P43166); assay: Fluorescent thermal shift assay (FTSA), CAVII; type: binding; details: for Intrinsic Gibbs energy change (ΔGint), CAVII: 37 °C, calculated (Equation 5); for Kd: FTSA, pH 7.0, 37 °C, read-out: Observed Dissociation Constant (Kd_obs), CAVII
T7 construct: made in house; host or cells: E. coli
Method: as §1, §2, §3, §4, §5

CAXIV = molecular target: T8, CAXIV (Homo sapiens, UniProt Q9ULX7); assay: Fluorescent thermal shift assay (FTSA), CAXIV; type: binding; details: for Intrinsic Gibbs energy change (ΔGint), CAXIV: 37 °C, calculated (Equation 5); for Kd: FTSA, pH 7.0, 37 °C, read-out: Observed Dissociation Constant (Kd_obs), CAXIV;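 for all read-outs here: recombinant human CA XIV from E. coli, ANS-based thermal shift: Kd_obs fitted from melting temperature versus ligand concentration, ΔGint from Kd_obs corrected for deprotonated sulfonamide and Zn-water fractions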
T8 construct: made in house; host or cells: E. coli

CAI [7] = molecular target: T9, CAI (Homo sapiens, UniProt P00915); assay: biochemical; type: binding; details: for Intrinsic Gibbs energy change (ΔGint), CAI: 37 °C, calculated (Equation 5); for Kd: FTSA, pH 7.0, 37 °C, read-out: Observed Dissociation Constant (Kd_obs), CAI
T9 construct: made in house; host or cells: E. coli
Method: as §1, §2, §6, §4, §5

CAIV = molecular target: T10, CAIV (Homo sapiens, UniProt P22748); assay: Fluorescent thermal shift assay (FTSA), CAIV; type: binding; details: for Intrinsic Gibbs energy change (ΔGint), CAIV: 37 °C, calculated (Equation 5); for Kd: FTSA, pH 7.0, 37 °C, read-out: Observed Dissociation Constant (Kd_obs), CAIV;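 for all read-outs here: recombinant human enzyme, thermal denaturation followed by ANS fluorescence, melting temperature versus ligand concentration fitted for Kd_obs, intrinsic value corrected for deprotonated sulfonamide and Zn-bound water fractions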
T10 construct: made in house; host or cells: E. coli

CAIII = molecular target: T11, CAIII (Homo sapiens, UniProt P07451); assay: Fluorescent thermal shift assay (FTSA), CAIII; type: binding; details: FTSA, pH 7.0, 37 °C; read-out: Observed Dissociation Constant (Kd_obs), CAIII
T11 construct: made in house; host or cells: E. coli

CAXIII [8] = molecular target: T2, CAXIII; assay: biochemical; details: Observed Dissociation Constant (Kd_obs), FTSA, pH 7.0, 37 °C
CAVI = molecular target: T12, CAVI (Homo sapiens, UniProt P23280); assay: Fluorescent thermal shift assay (FTSA), CAVI; type: binding; details: for Intrinsic Gibbs energy change (ΔGint), CAVI: 37 °C, calculated (Equation 5); for Kd: FTSA, pH 7.0, 37 °C, read-out: Observed Dissociation Constant (Kd_obs), CAVI;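 for all read-outs here: human CAVI expressed in mammalian cells, ANS fluorescence tracked during thermal unfolding, melting temperature fitted against ligand concentration, intrinsic values corrected for deprotonated sulfonamide and Zn-bound water fractions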
T12 construct: made in house

CAXII [9] = molecular target: T3, CAXII; details: FTSA, pH 7.0, 37 °C; taken from previous publication; read-out: Observed Dissociation Constant (Kd_obs), CAXII; cited from earlier work
CAI [10] = molecular target: T9, CAI; details: FTSA, pH 7.0, 37 °C; taken from previous publication; read-out: Observed Dissociation Constant (Kd_obs), CAI; cited from earlier work
CAXIII [11] = molecular target: T2, CAXIII; details: read-out: Observed Dissociation Constant (Kd_obs), CAXIII; FTSA, pH 7.0, 37 °C; taken from previous publication; cited from earlier work
CAIX [12] = molecular target: T5, CAIX; details: FTSA, pH 7.0, 37 °C; taken from previous publication; read-out: Observed Dissociation Constant (Kd_obs), CAIX; cited from earlier work
CAII [13] = molecular target: T4, CAII; details: FTSA, pH 7.0, 37 °C; taken from previous publication; read-out: Observed Dissociation Constant (Kd_obs), CAII; cited from earlier work
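Throughout, for Intrinsic Gibbs energy change (ΔGint), CAII: recombinant human CAII, thermal shift with ANS dye fluorescence, Kd_obs from fitting melting temperature versus ligand concentration, intrinsic values corrected for deprotonated sulfonamide and Zn-bound water fractions.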

T10 sequence (P22748 19-312): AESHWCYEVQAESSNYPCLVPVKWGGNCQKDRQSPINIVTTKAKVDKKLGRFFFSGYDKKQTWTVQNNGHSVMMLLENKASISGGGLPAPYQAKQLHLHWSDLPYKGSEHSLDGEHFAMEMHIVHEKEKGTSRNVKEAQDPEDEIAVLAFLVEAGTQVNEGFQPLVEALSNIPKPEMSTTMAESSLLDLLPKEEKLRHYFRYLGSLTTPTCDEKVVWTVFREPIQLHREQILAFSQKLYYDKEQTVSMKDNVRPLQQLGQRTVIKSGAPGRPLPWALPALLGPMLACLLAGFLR
T6 sequence (P35218 39-305): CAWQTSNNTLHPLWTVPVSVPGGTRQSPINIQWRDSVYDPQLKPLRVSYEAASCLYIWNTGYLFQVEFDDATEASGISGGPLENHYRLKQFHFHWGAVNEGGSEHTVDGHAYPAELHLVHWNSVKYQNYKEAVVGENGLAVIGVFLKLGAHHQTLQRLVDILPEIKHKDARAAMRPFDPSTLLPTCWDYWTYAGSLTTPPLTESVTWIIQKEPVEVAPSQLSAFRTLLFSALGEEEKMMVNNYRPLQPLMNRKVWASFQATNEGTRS
T3 sequence (O43570 25-354): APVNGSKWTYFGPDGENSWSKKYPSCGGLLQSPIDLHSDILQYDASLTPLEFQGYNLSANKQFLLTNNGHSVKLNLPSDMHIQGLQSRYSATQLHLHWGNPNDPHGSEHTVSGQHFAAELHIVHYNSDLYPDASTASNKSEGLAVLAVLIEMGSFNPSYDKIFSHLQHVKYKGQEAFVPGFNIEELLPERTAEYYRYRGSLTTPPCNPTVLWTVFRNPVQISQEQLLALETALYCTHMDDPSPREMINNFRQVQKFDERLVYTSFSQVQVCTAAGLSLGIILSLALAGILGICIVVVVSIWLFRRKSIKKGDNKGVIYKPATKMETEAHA
T2 sequence (Q8N1Q1 whole entry): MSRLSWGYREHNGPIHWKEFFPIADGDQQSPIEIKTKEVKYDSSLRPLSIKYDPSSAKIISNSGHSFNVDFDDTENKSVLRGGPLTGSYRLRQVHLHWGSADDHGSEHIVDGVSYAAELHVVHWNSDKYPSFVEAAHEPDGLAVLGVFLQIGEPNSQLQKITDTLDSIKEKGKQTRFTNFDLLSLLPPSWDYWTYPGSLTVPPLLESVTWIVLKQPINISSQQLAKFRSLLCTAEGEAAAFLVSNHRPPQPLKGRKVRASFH
T12 sequence (P23280 21-290 limits assumed): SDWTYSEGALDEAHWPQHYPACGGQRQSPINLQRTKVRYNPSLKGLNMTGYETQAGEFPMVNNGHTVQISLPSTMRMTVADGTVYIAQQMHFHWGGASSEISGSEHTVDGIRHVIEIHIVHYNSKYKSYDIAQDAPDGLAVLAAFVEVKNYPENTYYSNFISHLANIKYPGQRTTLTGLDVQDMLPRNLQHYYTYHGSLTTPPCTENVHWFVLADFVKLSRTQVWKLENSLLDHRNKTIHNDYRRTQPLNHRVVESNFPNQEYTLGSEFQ
T1 sequence (Q9Y2D0 34-317): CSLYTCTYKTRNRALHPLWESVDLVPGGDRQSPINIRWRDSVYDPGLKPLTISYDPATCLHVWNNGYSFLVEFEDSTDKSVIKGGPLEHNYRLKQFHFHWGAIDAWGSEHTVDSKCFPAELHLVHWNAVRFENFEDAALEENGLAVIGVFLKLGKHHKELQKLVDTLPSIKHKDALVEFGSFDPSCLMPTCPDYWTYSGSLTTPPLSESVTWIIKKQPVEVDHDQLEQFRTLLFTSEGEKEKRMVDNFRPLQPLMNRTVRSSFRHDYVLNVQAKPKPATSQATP
T8 sequence (Q9ULX7 16-337): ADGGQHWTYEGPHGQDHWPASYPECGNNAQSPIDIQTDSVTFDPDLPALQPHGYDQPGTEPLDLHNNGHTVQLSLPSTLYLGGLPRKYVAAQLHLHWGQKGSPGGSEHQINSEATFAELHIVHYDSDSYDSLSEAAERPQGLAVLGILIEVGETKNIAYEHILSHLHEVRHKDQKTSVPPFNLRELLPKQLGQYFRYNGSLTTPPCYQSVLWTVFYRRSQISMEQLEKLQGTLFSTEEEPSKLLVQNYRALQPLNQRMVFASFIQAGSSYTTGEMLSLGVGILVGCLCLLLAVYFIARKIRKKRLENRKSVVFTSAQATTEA
T7 sequence (P43166 whole entry): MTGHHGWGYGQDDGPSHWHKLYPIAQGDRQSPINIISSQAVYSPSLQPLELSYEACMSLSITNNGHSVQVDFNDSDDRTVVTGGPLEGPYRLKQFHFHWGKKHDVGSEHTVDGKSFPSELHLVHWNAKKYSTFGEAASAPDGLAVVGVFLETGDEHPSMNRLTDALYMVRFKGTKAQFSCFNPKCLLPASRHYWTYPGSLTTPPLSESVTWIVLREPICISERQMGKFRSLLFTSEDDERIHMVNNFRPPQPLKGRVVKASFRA
T9 sequence (P00915 whole entry): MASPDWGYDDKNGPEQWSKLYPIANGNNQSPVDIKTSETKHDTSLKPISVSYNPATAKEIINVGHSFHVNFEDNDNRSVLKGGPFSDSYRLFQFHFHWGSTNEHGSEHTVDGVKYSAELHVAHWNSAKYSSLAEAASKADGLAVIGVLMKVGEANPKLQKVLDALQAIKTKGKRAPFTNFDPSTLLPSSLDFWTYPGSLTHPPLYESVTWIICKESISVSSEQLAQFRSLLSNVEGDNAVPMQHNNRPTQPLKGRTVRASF
T11 sequence (P07451 whole entry): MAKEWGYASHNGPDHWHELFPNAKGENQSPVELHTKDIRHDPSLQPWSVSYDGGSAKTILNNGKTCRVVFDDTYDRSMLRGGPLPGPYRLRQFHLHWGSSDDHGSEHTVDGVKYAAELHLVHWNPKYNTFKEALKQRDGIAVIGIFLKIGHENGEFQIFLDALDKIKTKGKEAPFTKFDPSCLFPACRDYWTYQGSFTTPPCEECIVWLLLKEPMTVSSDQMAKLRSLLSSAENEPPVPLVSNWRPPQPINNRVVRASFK

Compound | Intrinsic Gibbs energy change (ΔGint), CAVB (CAVB) | Kd (CAVB) | melting point | Intrinsic Gibbs energy change (ΔGint), CAXIII (CAXIII [1]) | Intrinsic Gibbs energy change (ΔGint), CAXII (CAXII [2]) | Kd (CAXII [2]) | Kd (CAII [3]) | Intrinsic Gibbs energy change (ΔGint), CAIX (CAIX [4]) | Kd (CAIX [4]) | Intrinsic Gibbs energy change (ΔGint), CAII (CAII [5]) | Kd (CAII [5]) | pKa [6] | Intrinsic Gibbs energy change (ΔGint), CAVII (CAVII) | Kd (CAVII) | Intrinsic Gibbs energy change (ΔGint), CAXIV (CAXIV) | Kd (CAXIV) | Intrinsic Gibbs energy change (ΔGint), CAI (CAI [7]) | Kd (CAI [7]) | Intrinsic Gibbs energy change (ΔGint), CAIV (CAIV) | Kd (CAIV) | other results
CCOC(=O)c1sc(N(CCC(=O)O)c2ccc(S(N)(=O)=O)cc2)nc1C [Compound 31, 3-((5-(Ethoxycarbonyl)-4-methylthiazol-2-yl)(4-sulfamoylphenyl)amino)propanoic acid] | -11.5 kcal/mol | 20000 nM | 221 to 222 °C | -13.4 kcal/mol | -12.6 kcal/mol | 3800 nM | 860 nM | -14.3 kcal/mol | 360 nM | -13.5 kcal/mol | 910 nM | 10.1 | -13.1 kcal/mol | 1700 nM | -13.8 kcal/mol | 2000 nM | -12.5 kcal/mol | 2000 nM | -12.5 kcal/mol | 6700 nM | Kd (CAVA; pH 7.0, 37 °C, read-out: Observed Dissociation Constant (Kd_obs), CAVA): ≥ 200000 nM; Kd (CAIII): ≥ 200000 nM; Kd (CAXIII [8]): 450 nM; Intrinsic Gibbs energy change (ΔGint), CAVI (CAVI): -12.4 kcal/mol; Kd (CAVI): 24000 nM
NS(=O)(=O)c1ccc(N(CCC(=O)O)c2nc(-c3ccc(Cl)cc3)cs2)cc1 [Compound 35] | – | – | – | – | – | – | – | – | – | – | – | – | – | – | – | – | – | – | – | – | Kd (CAXII [9]): 200 nM; Kd (CAI [10]): 25 nM; Kd (CAXIII [11]): 530 nM; Kd (CAIX [12]): 560 nM; Kd (CAII [13]): 100 nM
COC(=O)CCN(c1ccc(S(N)(=O)=O)cc1)c1nc(C)cs1 [Compound 28, Methyl 3-((4-Methylthiazol-2-yl)(4-sulfamoylphenyl)amino)propanoate] | -15.2 kcal/mol | 46 nM | 72 to 73 °C | -13.8 kcal/mol | -14.3 kcal/mol | 250 nM | 59 nM | -15.8 kcal/mol | 33 nM | -15.3 kcal/mol | 45 nM | 10.1 | -15.1 kcal/mol | 77 nM | -16.4 kcal/mol | 29 nM | -15 kcal/mol | 37 nM | -13.6 kcal/mol | 1100 nM | Intrinsic Gibbs energy change (ΔGint), CAVA (CAVA; 37 °C, calculated (Equation 5)): -11.2 kcal/mol; Kd (CAVA; 200 µM the weakest detectable Kd_obs, read-out: Kd_obs, CAVA): 50000 nM; Kd (CAIII): ≥ 200000 nM; Kd (CAXIII [8]): 250 nM; Intrinsic Gibbs energy change (ΔGint), CAVI (CAVI): -13.2 kcal/mol; Kd (CAVI): 7100 nM
